# Measured values reported in patent publication US11566039B2, “Lincosamide antibiotics and uses thereof” (President and Fellows of Harvard College, priority 2017, dated 2023).
# Where two headings read alike, the source gives them in different places.
# Legend:
# Assay type in all cases: cell-based
# S. aureus ATCC 29213 = experiment: MIC against S. aureus ATCC 29213
# S. pyogenes ATCC 19615 = experiment: MIC against S. pyogenes ATCC 19615
# S. pneumoniae ATCC 49619 = experiment: MIC against S. pneumoniae ATCC 49619
# E. coli ATCC 25922 = experiment: MIC against E. coli ATCC 25922
# E. faecalis ATCC 29212 = experiment: MIC against E. faecalis ATCC 29212
# E. coli MP-9 ΔTolC = experiment: MIC against E. coli MP-9 ΔTolC
# K. pneumoniae ATCC 10031 = experiment: MIC against K. pneumoniae ATCC 10031
# H. influenzae ATCC 49247 = experiment: MIC against H. influenzae ATCC 49247
# [1] = system: S. aureus MP-549 msr(a) USA 300; experiment: MIC against S. aureus MP-549 msr(a) USA 300
# [2] = system: E. coli MP-74 LptD mutant; experiment: MIC against E. coli MP-74 LptD mutant
# [3] = Staphylococcus aureus, ATCC29213, S. aureus ATCC 29213, read-out: MIC
# [4] = Streptococcus pyogenes, ATCC19615, S. pyogenes ATCC 19615, read-out: MIC
# [5] = Streptococcus pneumoniae, ATCC49619, S. pneumoniae ATCC 49619, read-out: MIC
# [6] = Escherichia coli, ATCC25922, read-out: MIC
# [7] = Enterococcus faecalis, ATCC29212, E. faecalis ATCC 29212, read-out: MIC
# [8] = Klebsiella pneumoniae, ATCC10031, read-out: MIC
# [9] = Haemophilus influenzae, ATCC49247, H. influenzae ATCC 49247, read-out: MIC
# [10] = S. aureus MP-549 msr(a) USA 300
MIC (S. aureus ATCC 29213; [3]),MIC (S. pyogenes ATCC 19615; [4]),MIC (S. pneumoniae ATCC 49619; [5]),MIC (E. coli ATCC 25922; [6]),MIC (E. faecalis ATCC 29212; [7]),Compound,also measured
64 µg/mL,32 µg/mL,16 µg/mL,> 64 µg/mL,> 64 µg/mL,CCC[C@@H]1C[C@@H](C(=O)N[C@H](CNCC(F)(F)F)[C@H]2OC(SC)[C@H](O)C(O)C2O)N(C)C1 (stereo partly drawn) [FSA-214099],
,,,,,"CCC[C@@H]1C[C@@H](C(=O)N[C@H]([C@@H]2CCC(O)C2O)[C@H]2OC(SC)[C@H](O)C(O)C2O)N(C)C1 (single isomer, unassigned) [FSA-217039b]","MIC (E. coli MP-9 ΔTolC): >64 µg/mL; MIC (S. aureus ATCC 29213; S. aureus ATCC 29213): 4 µg/mL; MIC (S. pyogenes ATCC 19615; S. pyogenes ATCC 19615): 0.5 µg/mL; MIC (K. pneumoniae ATCC 10031): >64 µg/mL; MIC (H. influenzae ATCC 49247; H. influenzae ATCC 49247): >64 µg/mL; MIC (S. pneumoniae ATCC 49619; S. pneumoniae ATCC 49619): 1 µg/mL; MIC (E. coli ATCC 25922): >64 µg/mL; MIC [1, 10]: 8 µg/mL; MIC (E. faecalis ATCC 29212; E. faecalis ATCC 29212): >64 µg/mL; MIC [2]: >64 µg/mL"
> 64 µg/mL,> 64 µg/mL,> 64 µg/mL,> 64 µg/mL,> 64 µg/mL,CCC[C@@H]1C[C@@H](C(=O)N[C@H](CNc2ccc(-c3cncnc3)cc2)[C@H]2OC(SC)[C@H](O)C(O)C2O)N(C)C1 (stereo partly drawn) [FSA-214080],
64 µg/mL,32 µg/mL,64 µg/mL,> 64 µg/mL,> 64 µg/mL,CCC[C@@H]1C[C@@H](C(=O)N[C@H](CN(C)c2ccc(-c3cccnc3)cc2)[C@H]2OC(SC)[C@H](O)C(O)C2O)N(C)C1 (stereo partly drawn) [FSA-215009],
32 µg/mL,8 µg/mL,4 µg/mL,> 64 µg/mL,64 µg/mL,"CCC[C@@H]1C[C@@H](C(=O)N[C@H](CO)[C@H]2OC(SC)[C@H](O)C(O)C2O)N(C)C1 (stereo partly drawn) [FSA-214043, 8-norlincomycin]",
> 64 µg/mL,> 64 µg/mL,> 64 µg/mL,> 64 µg/mL,> 64 µg/mL,CCC[C@@H]1C[C@@H](C(=O)N[C@H](CNc2ccccc2)[C@H]2OC(SC)[C@H](O)C(O)C2O)N(C)C1 (stereo partly drawn) [FSA-214088],
> 64 µg/mL,> 64 µg/mL,> 64 µg/mL,> 64 µg/mL,> 64 µg/mL,CCC[C@@H]1C[C@@H](C(=O)N[C@H](CNC2CC2)[C@H]2OC(SC)[C@H](O)[C@H](O)C2O)N(C)C1 (stereo partly drawn) [FSA-214082b],
> 64 µg/mL,> 64 µg/mL,> 64 µg/mL,> 64 µg/mL,> 64 µg/mL,CCC[C@@H]1C[C@@H](C(=O)N[C@H](CNC23CC(C2)C3)[C@H]2OC(SC)[C@H](O)C(O)C2O)N(C)C1 (stereo partly drawn) [FSA-2140836],
> 64 µg/mL,> 64 µg/mL,> 64 µg/mL,> 64 µg/mL,> 64 µg/mL,CCC[C@@H]1C[C@@H](C(=O)N[C@H](CNCc2ccc(F)cc2)[C@H]2OC(SC)[C@H](O)C(O)C2O)N(C)C1 (stereo partly drawn) [FSA-214084],
> 64 µg/mL,> 64 µg/mL,2 µg/mL,> 64 µg/mL,> 64 µg/mL,CCC[C@@H]1C[C@@H](C(=O)N[C@H](Cn2cc(-c3ccnc(N)n3)nn2)[C@H]2OC(SC)[C@H](O)C(O)C2O)N(C)C1 (stereo partly drawn) [FSA-215011],

Compound,MIC (S. aureus ATCC 29213; [3]),MIC (S. pyogenes ATCC 19615; [4]),MIC (S. pneumoniae ATCC 49619; [5]),MIC (E. coli ATCC 25922; [6]),MIC (E. faecalis ATCC 29212; [7]),also measured
"CCC[C@@H]1C[C@@H](C(=O)N[C@H]([C@@H]2CCC(O)C2O)[C@H]2OC(SC)[C@H](O)C(O)C2O)N(C)C1 (single isomer, unassigned) [FSA-217039a]",,,,> 64 µg/mL,> 64 µg/mL,"MIC (E. coli MP-9 ΔTolC; Escherichia coli): > 64 µg/mL; MIC (S. aureus ATCC 29213; S. aureus ATCC 29213): >64 µg/mL; MIC (S. pyogenes ATCC 19615; S. pyogenes ATCC 19615): 8 µg/mL; MIC (K. pneumoniae ATCC 10031; [8]): > 64 µg/mL; MIC (H. influenzae ATCC 49247; [9]): > 64 µg/mL; MIC (S. pneumoniae ATCC 49619; S. pneumoniae ATCC 49619): 8 µg/mL; MIC [1, 10]: >64 µg/mL; MIC ([2]; Escherichia coli): > 64 µg/mL"
C=CC(C)(C)[C@@H](NC(=O)[C@@H]1C[C@@H](CCC)CN1C)[C@H]1OC(SC)[C@H](O)C(O)C1O (stereo partly drawn) [FSA-217009],0.25 µg/mL,0.12 µg/mL,0.5 µg/mL,> 64 µg/mL,64 µg/mL,"MIC (E. coli MP-9 ΔTolC; Escherichia coli): > 64 µg/mL; MIC (K. pneumoniae ATCC 10031; [8]): > 64 µg/mL; MIC (H. influenzae ATCC 49247; [9]): 64 µg/mL; MIC ([1]; Staphylococcus aureus, USA300, S. aureus MP-549 msr(a) USA 300): 0.25 µg/mL; MIC ([2]; Escherichia coli): 32 µg/mL"
